Source: ChEMBL document CHEMBL1201862, “PubChem BioAssay data set” (2004)
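All cell lines were grown in 96-well plates and treated with compound for 48 hours. GI50 = concentration required for 50% inhibition of growth.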 Calls of active or inactive are those of the source. Cut-off read from the data, not from the text of the source: active = GI50 up to about 1.1 µM and inactive = higher.

Experiments:
Assay in all cases: growth of human tumour cells (NCI), 48 h
K562 = system: K562
RXF 393 = system: RXF 393
Malme-3M = system: Malme-3M
NCI-H23 = system: NCI-H23
OVCAR-4 = system: OVCAR-4
HCT-15 = system: HCT-15
OVCAR-5 = system: OVCAR-5
SW-620 = system: SW-620
CAKI-1 = system: CAKI-1
UO-31 = system: UO-31
RPMI-8226 = system: RPMI-8226
UACC-62 = system: UACC-62
MCF7 = system: MCF7
U-251 = system: U-251
NCI-H226 = system: NCI-H226
LOX IMVI = system: LOX IMVI
ACHN = system: ACHN
SF-539 = system: SF-539
OVCAR-3 = system: OVCAR-3
SNB-75 = system: SNB-75

For [N-]=[N+]=CC(=O)COC(=O)c1ccccc1, the GI50 (K562) was > 100 µM (inactive), the GI50 (RXF 393) was > 100 µM (inactive) and the GI50 (Malme-3M) was > 100 µM (inactive). For the same molecule, the GI50 (NCI-H23) was > 100 µM (inactive), the GI50 (OVCAR-4) was > 100 µM (inactive) and the GI50 (HCT-15) was > 100 µM. For the same molecule, the GI50 (OVCAR-5) was > 100 µM (inactive), the GI50 (SW-620) was > 100 µM (inactive) and the GI50 (CAKI-1) was > 100 µM (inactive). The GI50 (UO-31) was > 100 µM (inactive), the GI50 (RPMI-8226) was 74.1 µM (inactive) and the GI50 (UACC-62) was > 100 µM (inactive). The GI50 (MCF7) was 88.5 µM (inactive), the GI50 (U-251) was > 100 µM (inactive) and the GI50 (NCI-H226) was > 100 µM (inactive). For the same molecule, the GI50 (LOX IMVI) was > 100 µM (inactive), the GI50 (ACHN) was > 100 µM (inactive) and the GI50 (SF-539) was > 100 µM (inactive). For the same molecule, the GI50 (OVCAR-3) was > 100 µM (inactive) and the GI50 (SNB-75) was > 100 µM (inactive).
